These results are taken from paper PMC2910072 (Nucleic Acids Research, 2010).

The assay has as its target E. coli RNA polymerase β subunit (wild-type) (Escherichia coli, UniProt P0A8V2). In words: coupled cell-free synthesis of RNAP holoenzyme with firefly luciferase reporter. The format is biochemical. In general terms: Reporter assays use an easily measured gene product as a stand-in for the process of interest.

pIC50: −log10 of the molar value.

Chain of E. coli RNA polymerase β subunit (wild-type) (P0A8V2 whole entry): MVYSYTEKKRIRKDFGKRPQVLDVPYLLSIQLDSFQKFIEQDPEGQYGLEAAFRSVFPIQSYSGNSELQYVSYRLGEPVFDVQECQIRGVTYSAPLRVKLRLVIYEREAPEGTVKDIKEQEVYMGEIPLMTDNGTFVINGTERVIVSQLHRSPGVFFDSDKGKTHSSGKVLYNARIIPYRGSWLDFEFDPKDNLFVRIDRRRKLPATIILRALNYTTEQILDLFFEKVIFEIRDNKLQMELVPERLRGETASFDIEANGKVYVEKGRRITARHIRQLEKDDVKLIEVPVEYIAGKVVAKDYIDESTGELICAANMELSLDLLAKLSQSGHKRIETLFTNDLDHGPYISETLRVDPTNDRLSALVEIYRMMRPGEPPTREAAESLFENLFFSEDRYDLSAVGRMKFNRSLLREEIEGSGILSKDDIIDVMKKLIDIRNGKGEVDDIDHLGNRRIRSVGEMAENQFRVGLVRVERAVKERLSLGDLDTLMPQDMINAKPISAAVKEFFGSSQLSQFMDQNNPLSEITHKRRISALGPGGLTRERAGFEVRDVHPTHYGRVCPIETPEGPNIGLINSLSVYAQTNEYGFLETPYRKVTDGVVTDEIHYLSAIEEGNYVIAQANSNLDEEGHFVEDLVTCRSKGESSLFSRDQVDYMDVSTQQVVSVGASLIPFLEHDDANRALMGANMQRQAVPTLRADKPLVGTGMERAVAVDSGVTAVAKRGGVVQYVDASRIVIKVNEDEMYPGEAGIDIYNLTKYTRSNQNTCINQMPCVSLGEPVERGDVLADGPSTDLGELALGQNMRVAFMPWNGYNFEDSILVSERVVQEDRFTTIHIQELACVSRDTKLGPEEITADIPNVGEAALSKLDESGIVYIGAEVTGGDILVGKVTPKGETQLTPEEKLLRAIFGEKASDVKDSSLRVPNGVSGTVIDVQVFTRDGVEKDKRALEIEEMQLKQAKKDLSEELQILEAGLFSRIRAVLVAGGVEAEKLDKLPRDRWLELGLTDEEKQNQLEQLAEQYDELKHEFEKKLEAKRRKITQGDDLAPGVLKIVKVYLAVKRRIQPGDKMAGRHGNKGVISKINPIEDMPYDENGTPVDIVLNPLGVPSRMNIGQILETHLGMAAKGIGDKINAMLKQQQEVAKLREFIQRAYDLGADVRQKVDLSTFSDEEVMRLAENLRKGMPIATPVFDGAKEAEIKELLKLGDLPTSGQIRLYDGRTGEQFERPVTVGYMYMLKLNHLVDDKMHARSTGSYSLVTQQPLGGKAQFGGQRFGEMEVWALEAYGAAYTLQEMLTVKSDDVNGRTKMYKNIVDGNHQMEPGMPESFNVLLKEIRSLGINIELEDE
Chain of E. coli RNA polymerase β subunit (wild-type) (P0A7Z4 whole entry partner): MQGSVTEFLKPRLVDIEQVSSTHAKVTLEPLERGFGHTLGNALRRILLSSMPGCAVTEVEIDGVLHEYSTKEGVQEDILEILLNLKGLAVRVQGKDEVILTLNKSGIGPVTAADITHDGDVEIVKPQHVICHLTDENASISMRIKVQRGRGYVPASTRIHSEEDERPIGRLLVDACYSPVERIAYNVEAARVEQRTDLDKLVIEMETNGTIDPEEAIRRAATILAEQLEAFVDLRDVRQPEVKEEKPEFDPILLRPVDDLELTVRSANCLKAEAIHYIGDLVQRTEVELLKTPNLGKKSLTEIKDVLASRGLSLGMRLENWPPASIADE
Chain of E. coli RNA polymerase β subunit (wild-type) (P0A8T7 whole entry partner): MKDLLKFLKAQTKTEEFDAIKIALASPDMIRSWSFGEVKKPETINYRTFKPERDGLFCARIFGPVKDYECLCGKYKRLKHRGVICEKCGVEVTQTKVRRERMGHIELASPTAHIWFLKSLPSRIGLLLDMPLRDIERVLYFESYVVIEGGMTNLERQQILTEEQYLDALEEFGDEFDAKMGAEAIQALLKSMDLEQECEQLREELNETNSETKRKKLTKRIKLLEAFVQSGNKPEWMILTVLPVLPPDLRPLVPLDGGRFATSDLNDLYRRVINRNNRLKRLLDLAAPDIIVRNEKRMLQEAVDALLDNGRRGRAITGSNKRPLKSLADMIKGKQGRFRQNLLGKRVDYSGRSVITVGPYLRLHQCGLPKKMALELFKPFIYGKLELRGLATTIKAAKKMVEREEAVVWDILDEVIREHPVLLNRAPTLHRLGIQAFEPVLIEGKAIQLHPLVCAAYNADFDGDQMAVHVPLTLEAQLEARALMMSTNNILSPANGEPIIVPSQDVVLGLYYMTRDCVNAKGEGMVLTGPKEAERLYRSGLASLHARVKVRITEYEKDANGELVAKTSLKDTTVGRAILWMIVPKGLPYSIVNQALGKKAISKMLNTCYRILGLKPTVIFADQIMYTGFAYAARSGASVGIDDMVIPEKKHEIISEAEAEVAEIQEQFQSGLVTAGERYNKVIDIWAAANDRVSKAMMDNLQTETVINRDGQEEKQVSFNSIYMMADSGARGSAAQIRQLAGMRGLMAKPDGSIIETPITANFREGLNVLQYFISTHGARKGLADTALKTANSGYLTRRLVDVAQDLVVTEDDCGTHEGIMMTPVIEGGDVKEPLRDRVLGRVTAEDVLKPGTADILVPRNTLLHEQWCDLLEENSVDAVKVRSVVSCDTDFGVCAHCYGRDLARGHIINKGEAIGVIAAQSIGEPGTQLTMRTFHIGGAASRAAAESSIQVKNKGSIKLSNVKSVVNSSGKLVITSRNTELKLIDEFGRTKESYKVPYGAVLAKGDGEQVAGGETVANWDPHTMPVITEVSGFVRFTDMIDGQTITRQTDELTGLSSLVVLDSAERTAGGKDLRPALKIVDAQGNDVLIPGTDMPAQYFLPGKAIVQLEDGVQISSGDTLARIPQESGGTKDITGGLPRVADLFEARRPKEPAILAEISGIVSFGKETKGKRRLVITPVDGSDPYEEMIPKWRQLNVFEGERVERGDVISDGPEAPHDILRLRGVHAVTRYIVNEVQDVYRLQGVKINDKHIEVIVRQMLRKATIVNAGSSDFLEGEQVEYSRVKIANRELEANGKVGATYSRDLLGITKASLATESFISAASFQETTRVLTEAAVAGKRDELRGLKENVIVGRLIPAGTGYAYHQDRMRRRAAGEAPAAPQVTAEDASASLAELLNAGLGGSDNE
Chain of E. coli RNA polymerase β subunit (wild-type) (P0A800 2-91 partner): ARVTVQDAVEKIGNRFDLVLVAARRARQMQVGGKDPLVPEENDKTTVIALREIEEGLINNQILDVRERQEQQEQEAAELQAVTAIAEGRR
Chain of E. coli RNA polymerase β subunit (wild-type) (P0AGB3 whole entry partner): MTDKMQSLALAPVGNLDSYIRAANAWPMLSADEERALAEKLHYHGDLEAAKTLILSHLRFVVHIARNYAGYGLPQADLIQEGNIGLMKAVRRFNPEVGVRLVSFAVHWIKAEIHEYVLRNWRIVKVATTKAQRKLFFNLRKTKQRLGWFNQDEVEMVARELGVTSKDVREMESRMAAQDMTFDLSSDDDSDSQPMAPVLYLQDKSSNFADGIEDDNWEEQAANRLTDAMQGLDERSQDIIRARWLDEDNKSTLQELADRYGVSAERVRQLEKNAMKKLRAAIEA

`CO[C@H]1/C=C/O[C@@]2(C)Oc3c(C)c(O)c4c(O)c(c(/C=N/N5CCN(C)CC5)c(O)c4c3C2=O)NC(=O)/C(C)=C\C=C\[C@H](C)[C@H](O)[C@@H](C)[C@@H](O)[C@@H](C)[C@H](OC(C)=O)[C@@H]1C` [rifampicin] had a negative logarithm of the IC50 (pIC50) of around 6.70.

As usually defined, the pIC50 is the negative decadic logarithm of the IC50, by convention in mol/L.
